# Residues, ends and D or L forms follow the SMILES beside them.
# Tests used:
# MTT cytotoxicity assay = assay type: cell-based, human; details: human
# Protocol: (§1) To determine the cytotoxicity of the peptides, we used the MTT (3-(4,5)-dimethylthiahiazo (-z-y1)-3,5-di-phenytetrazoliumromide) dye reduction assay against HEK293T cells. In brief, the 100 μL of cells in 96-well plate were incubated for 24 h at 37 °C, 5% CO2, and then peptide solutions (concentrations ranging from 100 to 0.39 μM) were added and further incubated for 72 h. MTT solution (5 mg/mL) was added and further incubated for 4 h. After incubation, the precipitated MTT formazan crystal was dissolved by addition of dimethyl sulfoxide (DMSO). […]
# HEK293T cells = experiment: MTT cytotoxicity assay; assay type: cell-based, human
# Protocol: as §1
# sheep red blood cells = experiment: Hemolysis assay; details: red cells of sheep, 1 h
# Protocol: To evaluate the hemolysis effects of peptides, red blood hemolysis was performed as described with minimum modifications. Sterile defibrated sheep blood was purchased from Guangzhou Hongquan Biotechnology Co., LTD. Blood cells were adjusted to 2 × 10^9 cells/mL in phosphate-buffered saline (PBS, pH 7.4). In total, 98 μL sheep red blood cell suspension was incubated with 2 μL of peptides at different concentrations ranging from 3.13 to 100 µM. After incubation for 1 h at 37 °C, the cells were centrifuged and the absorbance of the supernatant was measured at 450 nm. The value for “zero hemolysis” was determined using sterile PBS, while 100% hemolysis was established using 1.5% (v/v) Triton X-100. Hemolysis of testing sample was calculated as the percentage of Triton X-100-induced hemolysis.
# E. coli S = assay type: cell-based, Escherichia coli
# Text: (§2) Bacteria were cultivated in Luria-Bertani (LB) broth.
# E. coli ATCC 25922 = assay type: cell-based, Escherichia coli
# Text: as §2
# MRSA USA 300 = assay type: cell-based, Staphylococcus aureus
# Text: as §2
# MRSA 3393 = assay type: cell-based, Staphylococcus aureus; details: 3393
# Text: as §2
# MRSA ATCC 43300 = assay type: cell-based, Staphylococcus aureus; details: ATCC 43300
# Text: as §2
# A. baumannii 1318 = assay type: cell-based, Acinetobacter baumannii
# Text: as §2
# A. baumannii 1337 = assay type: cell-based, Acinetobacter baumannii
# Text: as §2
# [1] = test system: K. pneumoniae ATCC 700603; assay type: cell-based, Klebsiella pneumoniae
# Text: as §2
# K. pneumoniae 3026 = assay type: cell-based, Klebsiella pneumoniae
# Text: as §2
# MRSA = assay type: cell-based, Staphylococcus aureus
# Text: as §2
# [2] = HEK293T cells, OD450, cytotoxicity (Fig 2a), replicates
Structure (SMILES),MIC Gram- E. coli S (E. coli S) [µM],MIC Gram- E. coli ATCC 25922 (E. coli ATCC 25922) [µM],MIC Gram+ MRSA USA 300 (MRSA USA 300) [µM],MIC Gram+ MRSA 3393 (MRSA 3393) [µM],MIC Gram+ MRSA ATCC 43300 (MRSA ATCC 43300) [µM],MIC Gram- A. b 1318 (A. baumannii 1318) [µM],MIC Gram- A. b 1337 (A. baumannii 1337) [µM],MIC Gram- K. p ATCC 700603 [1] [µM],MIC Gram- K. p 3026 (K. pneumoniae 3026) [µM],MICs against MRSA (MRSA) [µM],other results
CC[C@H](C)[C@H](NC(=O)[C@H](CCCNC(=N)N)NC(=O)[C@H](CCCNC(=N)N)NC(=O)[C@H](CC(C)C)NC(=O)[C@H](Cc1ccccc1)NC(=O)[C@H](Cc1ccccc1)NC(=O)[C@H](Cc1ccccc1)NC(=O)[C@@H](N)Cc1ccccc1)C(=O)N[C@@H](Cc1ccccc1)C(N)=O [F-SHf(R^5)] (H-FFFFLRRIF-NH2; N-terminus assumed),50,12.5,3.13,1.57,1.57,25,25,> 100,100,–,"IC50 at 72 h (MTT cytotoxicity assay): 4.6 µM; viability at 72 h, 0.39 µM (MTT cytotoxicity assay; [2]): 102%; viability at 72 h, 0.78 µM (MTT cytotoxicity assay; [2]): 89.7%; viability at 72 h, 1.57 µM (MTT cytotoxicity assay; [2]): 89.3%; viability at 72 h, 3.13 µM (MTT cytotoxicity assay; [2]): 78.6%; viability at 72 h, 6.25 µM (MTT cytotoxicity assay; [2]): 40.1%; viability at 72 h, 12.5 µM (MTT cytotoxicity assay; [2]): 20.8%; viability at 72 h, 25 µM (MTT cytotoxicity assay; [2]): 12.3%; viability at 72 h, 50 µM (MTT cytotoxicity assay; [2]): 16.4%; viability at 72 h, 100 µM (MTT cytotoxicity assay; [2]): 17.1%; toxicity / cytotoxicity against HEK293T cells (in words) (HEK293T cells): high toxicity; HC10 (concentration inducing 10% hemolysis) (sheep red blood cells): 7.9 µM"
CC[C@H](C)[C@H](NC(=O)[C@H](CCCNC(=N)N)NC(=O)[C@H](CO)NC(=O)[C@H](CC(C)C)NC(=O)[C@H](Cc1ccccc1)NC(=O)[C@H](Cc1ccccc1)NC(=O)[C@H](Cc1ccccc1)NC(=O)[C@H](Cc1ccccc1)NC(=O)[C@@H](N)Cc1ccccc1)C(=O)N[C@@H](Cc1ccccc1)C(N)=O [FF-SHf] (H-FFFFFLSRIF-NH2; N-terminus assumed),> 100,> 100,6.25,3.13,50,> 100,> 100,> 100,> 100,3.13 to 50,–
CC[C@H](C)[C@H](NC(=O)[C@H](CCCNC(=N)N)NC(=O)[C@H](CO)NC(=O)[C@H](CC(C)C)NC(=O)[C@H](Cc1ccccc1)NC(=O)[C@H](Cc1ccccc1)NC(=O)[C@H](Cc1ccccc1)NC(=O)[C@@H](N)Cc1ccc(O)cc1)C(=O)N[C@@H](Cc1ccccc1)C(N)=O [Y-SHf] (H-YFFFLSRIF-NH2; N-terminus assumed),> 100,> 100,12.5,12.5,12.5,> 100,> 100,> 100,> 100,–,–
CC[C@H](C)[C@H](NC(=O)[C@H](CCCNC(=N)N)NC(=O)[C@H](CO)NC(=O)[C@H](CC(C)C)NC(=O)[C@H](Cc1ccccc1)NC(=O)[C@H](Cc1ccccc1)NC(=O)[C@H](Cc1ccccc1)NC(=O)[C@H](Cc1ccc(O)cc1)NC(=O)[C@@H](N)Cc1ccc(O)cc1)C(=O)N[C@@H](Cc1ccccc1)C(N)=O [YY-SHf] (H-YYFFFLSRIF-NH2; N-terminus assumed),> 100,> 100,6.25,50,6.25,> 100,> 100,> 100,> 100,3.13 to 50,–

# From article PMC10657444, “Design and evaluation of tadpole-like conformational antimicrobial peptides” (Communications Biology, 2023)
